Source: PMC11195807, “Development of a multi-targeted chemotherapeutic approach based on G-quadruplex stabilisation and carbonic anhydrase inhibition” (Journal of Enzyme Inhibition and Medicinal Chemistry, 2024)
“And” between values parts separate entries of the source, which are not always exact repeats. Equal entries are not always repeated.

What was measured:
hCA I = target: T1, hCA I (Homo sapiens, UniProt P00915); test: stopped-flow CO2 hydrase assay, hCA I; assay type: biochemical
T1 construct: made in house
Procedure: (§1) An Applied Photophysics stopped-flow instrument has been used for assaying the CA-catalysed CO2 hydration activity, as reported earlier. The enzyme concentrations were in the range 5–12 nM. All hCA isoforms were recombinant proteins, being obtained in-house as reported earlier.

c-Myc = test: CD melting experiments, c-Myc GQ; assay type: binding; details: for ΔT1/2 c-Myc: 1 molar equiv compound, T1/2 of DNA alone 70.0 °C; for ΔΔT1/2 c-Myc: ΔT1/2 of compound minus ΔT1/2 of berberine, 1 molar equiv
From the text: (§2) The 21 synthesised MTDLs were screened for their ability to bind to and stabilise DNA GQ-forming sequences, compared to berberine, by CD experiments. Indeed, circular dichroism has shown to be outstandingly useful and informative for noncanonical nucleic acid secondary structures. For this purpose, a G-rich 23-nucleotide truncation (23-nt) of the human telomeric sequence (Tel23) and two G-rich motifs from the promoter regions of c-KIT (c-Kit1) and c-MYC (c-Myc) oncogenes were employed. First, the overall topology adopted by each DNA sequence in K^+-containing buffer was verified by CD spectra. […] GQ conformation (Figure S1, Supporting Information). On the other hand, c-Kit1 and c-Myc sequences adopted a parallel GQ conformation, showing a distinctive positive band at around 260 nm and a negative one at ∼240 nm in their CD spectra (Figures S2 and S3, Supporting Information).
(§3) Afterwards, the GQ-stabilising properties of the molecules were assessed by CD melting experiments, measuring the differences in the apparent melting temperatures of the DNA in the presence and absence of compounds (ΔT1/2) (Figures S4–S6 and Table S2, Supporting Information). […] This could be explained by considering the higher accessibility of the external G-tetrads in the case of parallel GQs compared to the hybrid one[52], which would allow the additional CAI moiety of conjugated compounds to be better accommodated in the binding site. […] . […] .

Hairpin = test: CD melting experiments, hairpin DNA duplex; details: 2 molar equiv compound, T1/2 of DNA alone 66.0 °C
c-Kit1 = test: CD melting experiments, c-Kit1 GQ; assay type: binding; details: for ΔT1/2 c-Kit1: 2 molar equiv compound, T1/2 of DNA alone 55.0 °C; for ΔΔT1/2 c-Kit1: ΔT1/2 of compound minus ΔT1/2 of berberine, 2 molar equiv
From the text: as §2, §3

hCA II = target: T2, hCA II (Homo sapiens, UniProt P00918); test: stopped-flow CO2 hydrase assay, hCA II; assay type: biochemical
T2 construct: made in house
From the text: . The structure-activity relationship is discussed separately for the two compound subsets. Another code pattern is included for the MTDLs in Table 1, which indicates the derivative CAI type (sulphonamide, S or coumarin, C) and the number of atoms in the spacers connecting either berberine and the triazole (carbon atoms) or the triazole and the benzenesulfonamide/coumarin scaffolds (carbon or oxygen atoms).
as §1

Tel23 = test: CD melting experiments, Tel23 GQ; assay type: binding, human; details: for ΔT1/2 Tel23: 2 molar equiv compound, T1/2 of DNA alone 53.5 °C; for ΔΔT1/2 Tel23: ΔT1/2 of compound minus ΔT1/2 of berberine, 2 molar equiv
From the text: as §2, §3

hCA IX = target: T3, hCA IX (Homo sapiens, UniProt Q16790); test: stopped-flow CO2 hydrase assay, hCA IX; assay type: biochemical; details: for Selectivity index (SI) I/IX: hCA IX over hCA I; for Selectivity index (SI) II/IX: hCA IX over hCA II; for Ki: mean ± SEM of three assays
T3 construct: made in house
From the text: (§4) An Applied Photophysics stopped-flow instrument has been used for assaying the CA-catalysed CO2 hydration activity, as reported earlier. […] All hCA isoforms were recombinant proteins, being obtained in-house as reported earlier.

hCA XII = target: T4, hCA XII (Homo sapiens, UniProt O43570); test: stopped-flow CO2 hydrase assay, hCA XII; assay type: biochemical; details: for Selectivity index (SI) I/XII: hCA XII over hCA I; for Selectivity index (SI) II/XII: hCA XII over hCA II; for Ki: mean ± SEM of three assays
T4 construct: made in house
From the text: as §4

[1] = sulphonamides, inhibitor-enzyme incubation 15 min, mean ± SEM of three assays
[2] = sulphonamides, inhibitor-enzyme incubation 15 min
[3] = coumarins, inhibitor-enzyme incubation 6 h

T1 sequence (P00915 whole entry): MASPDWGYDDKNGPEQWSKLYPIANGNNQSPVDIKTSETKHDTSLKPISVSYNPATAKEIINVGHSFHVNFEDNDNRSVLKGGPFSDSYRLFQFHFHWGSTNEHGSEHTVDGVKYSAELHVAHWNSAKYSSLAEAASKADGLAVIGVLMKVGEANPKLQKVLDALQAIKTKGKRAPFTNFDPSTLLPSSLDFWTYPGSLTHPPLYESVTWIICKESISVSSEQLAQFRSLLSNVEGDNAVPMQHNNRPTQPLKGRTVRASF
T4 sequence (O43570 25-354): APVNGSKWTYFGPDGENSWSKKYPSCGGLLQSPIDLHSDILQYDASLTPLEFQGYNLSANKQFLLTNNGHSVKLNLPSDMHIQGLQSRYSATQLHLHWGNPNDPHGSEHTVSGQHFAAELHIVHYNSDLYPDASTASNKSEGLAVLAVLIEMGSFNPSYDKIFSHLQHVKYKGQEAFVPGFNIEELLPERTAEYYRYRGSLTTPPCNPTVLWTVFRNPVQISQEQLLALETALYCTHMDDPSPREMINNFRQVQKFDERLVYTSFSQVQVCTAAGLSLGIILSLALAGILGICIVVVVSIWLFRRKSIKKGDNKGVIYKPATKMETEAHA

Compound | Ki (hCA I; [1]) | ΔT1/2 c-Myc (c-Myc) | ΔΔT1/2 c-Myc (c-Myc) | ΔT1/2 Hairpin (Hairpin) | ΔT1/2 c-Kit1 (c-Kit1) | ΔΔT1/2 c-Kit1 (c-Kit1) | Ki (hCA II; [1]) | ΔT1/2 Tel23 (Tel23) | ΔΔT1/2 Tel23 (Tel23) | Selectivity index (SI) I/IX (hCA IX) | Selectivity index (SI) II/IX (hCA IX) | Ki (hCA IX; [2]) | Selectivity index (SI) I/XII (hCA XII) | Selectivity index (SI) II/XII (hCA XII) | Ki (hCA XII; [2]) | Ki (hCA I; [3]) | Ki (hCA II; [3]) | Ki (hCA IX; [3]) | Ki (hCA XII; [3]) | also measured
COc1ccc2cc3[n+](cc2c1OCc1cn(-c2ccc(S(N)(=O)=O)cc2)nn1)CCc1cc2c(cc1-3)OCO2 [Compound 41, 10-Methoxy-9-((1–(4-sulfamoylphenyl)-1H-1,2,3-triazol-4-yl)methoxy)-5,6-dihydro-[1,3]dioxolo[4,5-g]isoquinolino[3,2-a]isoquinolin-7-ium hexafluorophosphate] | 0.829 ± 0.0503 µM | 14.5 °C | 2.5 °C | +2.5 °C | 15.0 °C | 2.0 °C | 22.9 ± 1.4 nM | 5.5 °C | −4.0 °C | 307.1 | 8.5 | 2.7 ± 0.2 nM | 135.9 | 3.8 | 6.1 ± 0.3 nM |  |  |  |  | 
COc1ccc2cc3[n+](cc2c1OCc1cn(CCCOc2ccc4ccc(=O)oc4c2)nn1)CCc1cc2c(cc1-3)OCO2 [Compound 42, 10-Methoxy-9-((1–(3-((2-oxo-2H-chromen-7-yl)oxy)propyl)-1H-1,2,3-triazol-4-yl)methoxy)-5,6-dihydro-[1,3]dioxolo[4,5-g]isoquinolino[3,2-a]isoquinolin-7-ium hexafluorophosphate] |  | 16.0 °C | 4.0 °C | +0.5 °C | 17.0 °C | 4.0 °C |  | 10.5 °C | 1.0 °C | > 284.9 | > 284.9 |  | > 980.4 | > 980.4 |  | > 100 µM | > 100000 nM | 35.1 ± 2.8 nM | 10.2 ± 0.8 nM | 
COc1ccc2cc3[n+](cc2c1OCc1cn(CCCCOc2ccc4ccc(=O)oc4c2)nn1)CCc1cc2c(cc1-3)OCO2 [Compound 43, 10-Methoxy-9-((1–(4-((2-oxo-2H-chromen-7-yl)oxy)butyl)-1H-1,2,3-triazol-4-yl)methoxy)-5,6-dihydro-[1,3]dioxolo[4,5-g]isoquinolino[3,2-a]isoquinolin-7-ium hexafluorophosphate] |  | 14.0 °C | 2.0 °C | -0.5 °C | 16.5 °C | 3.5 °C |  | 7.0 °C | −2.5 °C | > 392.2 | > 392.2 |  | > 2381 | > 2381 |  | > 100 µM | > 100000 nM | 25.5 ± 1.5 nM | 4.2 ± 0.3 nM | 
COc1ccc2cc3[n+](cc2c1OCc1cn(CCCCCOc2ccc4ccc(=O)oc4c2)nn1)CCc1cc2c(cc1-3)OCO2 [Compound 44, 10-Methoxy-9-((1–(5-((2-oxo-2H-chromen-7-yl)oxy)pentyl)-1H-1,2,3-triazol-4-yl)methoxy)-5,6-dihydro-[1,3]dioxolo[4,5-g]isoquinolino[3,2-a]isoquinolin-7-ium hexafluorophosphate] |  |  | >13.0 °C | +1.0 °C | 17.5 °C | 4.5 °C |  | 7.5 °C | −2.0 °C | > 1041 | > 1041 |  | > 689.7 | > 689.7 |  | > 100 µM | > 100000 nM | 9.6 ± 0.5 nM | 14.5 ± 0.9 nM | ΔΔT1/2 c-Myc (c-Myc; listed as C-1,6): > 13.0 °C
COc1ccc2cc3[n+](cc2c1OCc1cn(-c2ccc4c(C)cc(=O)oc4c2)nn1)CCc1cc2c(cc1-3)OCO2 [Compound 45, 10-Methoxy-9-((1–(4-methyl-2-oxo-2H-chromen-7-yl)-1H-1,2,3-triazol-4-yl)methoxy)-5,6-dihydro-[1,3]dioxolo[4,5-g]isoquinolino[3,2-a]isoquinolin-7-ium hexafluorophosphate] |  |  | >13.0 °C | +2.5 °C | 16.5 °C | 3.5 °C |  | 7.0 °C | −2.5 °C | > 194.2 | > 194.2 |  | > 1852 | > 1852 |  | > 100 µM | > 100000 nM | 51.5 ± 3.6 nM | 5.4 ± 0.3 nM | ΔΔT1/2 c-Myc (c-Myc; listed as C-1,0c): > 13.0 °C
COc1ccc2cc3[n+](cc2c1OCCCS(N)(=O)=O)CCc1cc2c(cc1-3)OCO2 [Compound 47, 10-methoxy-9–(3-sulfamoylpropoxy)-5,6-dihydro-[1,3]dioxolo[4,5-g]isoquinolino[3,2-a]isoquinolin-7-ium hexafluorophosphate] | 0.0751 ± 0.0054 µM | 12.5 °C | 0.5 °C | +2.0 °C | 15.5 °C | 2.5 °C | 21.5 nM and 22.1 nM | 6.5 °C | −3.0 °C | 4.2 | 1.2 | 17.8 ± 0.9 nM | 2.1 | 0.6 | 35.9 ± 2.1 nM |  |  |  |  | 
